Test results taken from ChEMBL document CHEMBL1147070 (Drug Metab Dispos, 2007).

Columns and labels:
Type in all cases: cell-based
URAT1 (SLC22A12) = target: T1, URAT1 (SLC22A12) (Homo sapiens, UniProt Q96S37); assay: Inhibition of human URAT1-mediated urate uptake in HEK293 cells at 2 uM; conditions: HEK293 cells expressing human URAT1, probe urate
T1 sequence (Q96S37 whole entry): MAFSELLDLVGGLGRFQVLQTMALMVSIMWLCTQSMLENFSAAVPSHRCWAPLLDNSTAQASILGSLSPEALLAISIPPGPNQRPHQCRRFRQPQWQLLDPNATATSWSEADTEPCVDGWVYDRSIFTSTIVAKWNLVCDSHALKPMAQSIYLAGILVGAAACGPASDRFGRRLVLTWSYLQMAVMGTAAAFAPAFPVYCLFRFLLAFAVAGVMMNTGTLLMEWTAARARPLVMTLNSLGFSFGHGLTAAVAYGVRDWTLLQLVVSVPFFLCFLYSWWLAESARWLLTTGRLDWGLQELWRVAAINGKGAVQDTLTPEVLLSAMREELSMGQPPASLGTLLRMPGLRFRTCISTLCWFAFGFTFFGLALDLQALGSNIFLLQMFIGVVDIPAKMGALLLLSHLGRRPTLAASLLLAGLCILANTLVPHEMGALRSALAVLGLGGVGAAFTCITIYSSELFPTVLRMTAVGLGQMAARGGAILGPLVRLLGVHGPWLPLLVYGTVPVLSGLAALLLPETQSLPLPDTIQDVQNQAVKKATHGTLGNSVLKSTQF

[1] = target: T2, Solute carrier family 22 member 12 (Homo sapiens, UniProt Q96S37); assay: Inhibition of human URAT1-mediated urate uptake in HEK293 cells
T2 sequence (Q96S37 whole entry): T1 sequence (Q96S37 whole entry)

[2] = target: T2, Solute carrier family 22 member 12; assay: Inhibition of human URAT1-mediated urate uptake in HEK293 cells by competitive inhibition assay

| Structure (SMILES) | inhibition at 2 µM (URAT1 (SLC22A12)) | IC50 [1] | Ki [2] |
| --- | --- | --- | --- |
| CCc1oc2ccccc2c1C(=O)c1cc(Br)c(O)c(Br)c1 [BENZBROMARONE] | 70% |  |  |
| O=c1c(O)c(-c2ccc(O)cc2O)oc2cc(O)cc(O)c12 [MORIN] |  | 2 µM | 5.74 µM |
| CCCN(CCC)S(=O)(=O)c1ccc(C(=O)O)cc1 [PROBENECID] | 30% |  |  |
| O=C1C(CC[S+]([O-])c2ccccc2)C(=O)N(c2ccccc2)N1c1ccccc1 (stereo not given) [SULFINPYRAZONE] |  | 100 µM |  |
